{
  "source": "paper PMC4512978",
  "about": "“Synthesis and evaluation in rats of homologous series of [^18F]-labeled dopamine D2/3 receptor agonists based on the 2-aminomethylchroman scaffold as potential PET tracers” (EJNMMI Research, 2015)",
  "key": {"[1]": {"test": "LogD measurement (n-octanol/phosphate buffer)", "format": "physicochemical", "details": "n-octanol / 1 M phosphate buffer pH 7.4", "method": "LogD of the tracers was measured using the radioactivity remaining on the HLB SPE cartridges after their elution with ethanol during the tracer formulation procedure (see above). The cartridge was dried with nitrogen for 5 min and eluted with at least 1.5 mL n-octanol. A 500 μL portion of octanol eluate was mixed with 500 μL of 1 M phosphate buffer (pH 7.4) and vigorously vortexed for 5 min. The mixture was then centrifuged at 17,000g for 10 min and 3 × 100 μL aliquots of organic and aqueous phase were loaded into a gamma-counter for radioactivity measurement. To correct for possible presence of radioactive impurities in the tracer, aliquots of organic and aqueous phases were later analyzed by radio-TLC, and the counts obtained from the gamma-counter were corrected according to the percentage of impurities found in aqueous and organic phases. LogD was calculated with the following formula: LogD=lgCPMorg×Xorgtracer/CPMaq×Xaqtracer,\nwhere CPMorg is the mean radioactivity of the organic aliquots, Xorgtracer is the mean percentage of radioactivity accounting for intact tracer in organic aliquots (as determined from radio-TLC), and CPMaq and Xaqtracer are the corresponding values for the aqueous phase.\nFor each tracer batch used for logD determination, the experiment was performed in duplicate. LogD values are means calculated from at least two independent experiments."}, "[2]": {"test": "Ex vivo tissue uptake after the PET scan (gamma-counter)", "format": "in vivo, Sprague-Dawley rats", "method": "After the end of the PET scans (i.e., 98 ± 8 min after tracer injection), anesthetized animals were sacrificed by heart extirpation and dissected. Samples of brain and peripheral tissues were taken. All samples were weighed, and their radioactivity was measured in a gamma-counter."}, "[3]": {"test": "Tracer metabolism in plasma and brain extract (radio-TLC)", "format": "in vivo, rats", "details": "living rats", "method": "Throughout the scan, arterial blood samples (15–19 samples; 0.10–0.15 mL each) were withdrawn from each rat through the arterial cannula. […] From each sample, 25 μL aliquots of whole blood were withdrawn. The rest was centrifuged at 3500 g for 5 min; 25 μL supernatant (plasma) aliquots were withdrawn and deproteinated with 75 μL of ice-cold acetonitrile. From the resulting 100 μL, 2–8 μL portions (i.e., 2–8 % of volume) were taken for thin layer chromatography analysis (radio-TLC) to assess radiometabolite content.\nThe radioactivity of the plasma and whole blood samples was measured using a well-type gamma-counter (LKB-1282-Compugamma, LKB Wallac).\nRadio-TLC was performed on silica plates. Samples of the formulated tracers (diluted) were run along with deproteinated plasma samples to confirm the identity of the parent compound in plasma. Eluent systems used and TLC Rf values recorded are presented in Additional file 1: Table S1.\nAnother half of the brain was homogenized in 3 mL of ice-cold acetonitrile using Heidolph IDAX600 homogenizer at maximum speed. Homogenate was centrifuged at 3500g for 5 min, and the supernatant (containing >95 % total radioactivity) was analyzed by radio-TLC in the same way as described above for the plasma."}, "[4]": {"details": "raclopride 1 mg/kg, after PET scan"}},
  "data": [
    {"smiles": "Oc1ccc2c(c1)O[C@@H](CNCc1ccc(OCCCC[18F])cc1)CC2", "note": "[[^18F]FBu-AMC13, (R)-2-[(4-(4-[^18F]fluorobutoxy)benzylamino)methyl]chroman-7-ol]", "values": [
      {"measurement": "logD", "setting": "[1]", "value": "2.5 ± 0.06"},
      {"measurement": "Ex vivo uptake, Adrenal glands", "setting": "[2]; RAC", "value": "32.1±3.6", "unit": "SUV"},
      {"measurement": "Ex vivo uptake, Bladder", "setting": "[2]; RAC", "value": "0.59±0.26", "unit": "SUV"},
      {"measurement": "Ex vivo uptake, Bone", "setting": "[2]; RAC", "value": "0.77±0.46", "unit": "SUV"},
      {"measurement": "Ex vivo uptake, Bone marrow", "setting": "[2]; RAC", "value": "2.18±0.09", "unit": "SUV"},
      {"measurement": "Ex vivo uptake, Duodenum", "setting": "[2]; RAC", "value": "2.70±1.37", "unit": "SUV"},
      {"measurement": "Ex vivo uptake, Heart", "setting": "[2]; RAC", "value": "0.36±0.03", "unit": "SUV"},
      {"measurement": "Ex vivo uptake, Kidney", "setting": "[2]; RAC", "value": "2.36±0.54", "unit": "SUV"},
      {"measurement": "Ex vivo uptake, Large intestine", "setting": "[2]; RAC", "value": "0.46±0.19", "unit": "SUV"},
      {"measurement": "Ex vivo uptake, Liver", "setting": "[2]; RAC", "value": "1.99±0.86", "unit": "SUV"},
      {"measurement": "Ex vivo uptake, Lung", "setting": "[2]; RAC", "value": "4.26±1.02", "unit": "SUV"},
      {"measurement": "Ex vivo uptake, Muscle", "setting": "[2]; RAC", "value": "0.27±0.02", "unit": "SUV"},
      {"measurement": "Ex vivo uptake, Pancreas", "setting": "[2]; RAC", "value": "3.54±0.64", "unit": "SUV"},
      {"measurement": "Ex vivo uptake, Plasma", "setting": "[2]; RAC", "value": "0.16±0.03", "unit": "SUV"},
      {"measurement": "Ex vivo uptake, Prostate", "setting": "[2]; RAC", "value": "1.27±0.40", "unit": "SUV"},
      {"measurement": "Ex vivo uptake, Small intestine", "setting": "[2]; RAC", "value": "3.21±3.67", "unit": "SUV"},
      {"measurement": "Ex vivo uptake, Small intestine content", "setting": "[2]; RAC", "value": "11.0±11.4", "unit": "SUV"},
      {"measurement": "Ex vivo uptake, Spleen", "setting": "[2]; RAC", "value": "2.14±0.20", "unit": "SUV"},
      {"measurement": "Ex vivo uptake, Stomach", "setting": "[2]; RAC", "value": "2.19±0.67", "unit": "SUV"},
      {"measurement": "Ex vivo uptake, Submandibular gland", "setting": "[2]; RAC", "value": "2.12±0.85", "unit": "SUV"},
      {"measurement": "Ex vivo uptake, Thymus", "setting": "[2]; RAC", "value": "1.54±0.12", "unit": "SUV"},
      {"measurement": "Ex vivo uptake, Urine", "setting": "[2]; RAC", "value": "1.51±0.95", "unit": "SUV"},
      {"measurement": "Ex vivo uptake, Adrenal glands", "setting": "[2]; SAL", "value": "34.5±3.5", "unit": "SUV"},
      {"measurement": "Ex vivo uptake, Bladder", "setting": "[2]; SAL", "value": "0.43±0.16", "unit": "SUV"},
      {"measurement": "Ex vivo uptake, Bone", "setting": "[2]; SAL", "value": "0.73±0.47", "unit": "SUV"},
      {"measurement": "Ex vivo uptake, Bone marrow", "setting": "[2]; SAL", "value": "2.31±1.19", "unit": "SUV"},
      {"measurement": "Ex vivo uptake, Duodenum", "setting": "[2]; SAL", "value": "3.24±1.2", "unit": "SUV"},
      {"measurement": "Ex vivo uptake, Heart", "setting": "[2]; SAL", "value": "0.50±0.25", "unit": "SUV"},
      {"measurement": "Ex vivo uptake, Kidney", "setting": "[2]; SAL", "value": "3.24±0.69", "unit": "SUV"},
      {"measurement": "Ex vivo uptake, Large intestine", "setting": "[2]; SAL", "value": "0.60±0.13", "unit": "SUV"},
      {"measurement": "Ex vivo uptake, Liver", "setting": "[2]; SAL", "value": "1.49±0.15", "unit": "SUV"},
      {"measurement": "Ex vivo uptake, Lung", "setting": "[2]; SAL", "value": "4.85±2.15", "unit": "SUV"},
      {"measurement": "Ex vivo uptake, Muscle", "setting": "[2]; SAL", "value": "0.33±0.13", "unit": "SUV"},
      {"measurement": "Ex vivo uptake, Pancreas", "setting": "[2]; SAL", "value": "3.78±0.41", "unit": "SUV"},
      {"measurement": "Ex vivo uptake, Plasma", "setting": "[2]; SAL", "value": "0.15±0.02", "unit": "SUV"},
      {"measurement": "Ex vivo uptake, Prostate", "setting": "[2]; SAL", "value": "0.95±0.17", "unit": "SUV"},
      {"measurement": "Ex vivo uptake, Small intestine", "setting": "[2]; SAL", "value": "4.52±5.94", "unit": "SUV"},
      {"measurement": "Ex vivo uptake, Small intestine content", "setting": "[2]; SAL", "value": "20.9±31.4", "unit": "SUV"},
      {"measurement": "Ex vivo uptake, Spleen", "setting": "[2]; SAL", "value": "2.48±1.27", "unit": "SUV"},
      {"measurement": "Ex vivo uptake, Stomach", "setting": "[2]; SAL", "value": "1.90±0.26", "unit": "SUV"},
      {"measurement": "Ex vivo uptake, Submandibular gland", "setting": "[2]; SAL", "value": "2.01±0.53", "unit": "SUV"},
      {"measurement": "Ex vivo uptake, Thymus", "setting": "[2]; SAL", "value": "2.04±0.27", "unit": "SUV"},
      {"measurement": "Ex vivo uptake, Urine", "setting": "[2]; SAL", "value": "0.63±0.53", "unit": "SUV"},
      {"measurement": "Ex vivo uptake, Brainstem", "setting": "[2]; [4]", "value": "1.25 ± 0.14", "unit": "SUV"},
      {"measurement": "Ex vivo uptake, Cerebellum", "setting": "[2]; [4]", "value": "0.73 ± 0.08", "unit": "SUV"},
      {"measurement": "Ex vivo uptake, Cortex", "setting": "[2]; [4]", "value": "1.01 ± 0.11", "unit": "SUV"},
      {"measurement": "Ex vivo uptake, Hippocampus", "setting": "[2]; [4]", "value": "1.21 ± 0.06", "unit": "SUV"},
      {"measurement": "Ex vivo uptake, Mean brain uptake", "setting": "[2]; [4]", "value": "1.03 ± 0.11", "unit": "SUV"},
      {"measurement": "Ex vivo uptake, Olfactory bulbs", "setting": "[2]; [4]", "value": "0.86 ± 0.09", "unit": "SUV"},
      {"measurement": "Ex vivo uptake, Parietal bone", "setting": "[2]; [4]", "value": "0.70 ± 0.18", "unit": "SUV"},
      {"measurement": "Ex vivo uptake, Pituitary", "setting": "[2]; [4]", "value": "2.72 ± 0.77", "unit": "SUV"},
      {"measurement": "Ex vivo uptake, Rest of brain", "setting": "[2]; [4]", "value": "1.10 ± 0.17", "unit": "SUV"},
      {"measurement": "Ex vivo uptake, Striatum", "setting": "[2]; [4]", "value": "1.21 ± 0.14", "unit": "SUV"},
      {"measurement": "Ex vivo uptake, Thalamus + hypothalamus", "setting": "[2]; [4]", "value": "1.07 ± 0.10", "unit": "SUV"},
      {"measurement": "Ex vivo uptake, Brainstem", "setting": "[2]; saline, after PET scan", "value": "1.97 ± 0.42 (2) SUV"},
      {"measurement": "Ex vivo uptake, Cerebellum", "setting": "[2]; saline, after PET scan", "value": "1.11 ± 0.29 (8) SUV"},
      {"measurement": "Ex vivo uptake, Cortex", "setting": "[2]; saline, after PET scan", "value": "1.50 ± 0.32 (7) SUV"},
      {"measurement": "Ex vivo uptake, Hippocampus", "setting": "[2]; saline, after PET scan", "value": "1.50 ± 0.25 (6) SUV"},
      {"measurement": "Ex vivo uptake, Mean brain uptake", "setting": "[2]; saline, after PET scan", "value": "1.56 ± 0.33", "unit": "SUV"},
      {"measurement": "Ex vivo uptake, Olfactory bulbs", "setting": "[2]; saline, after PET scan", "value": "1.85 ± 0.64 (3) SUV"},
      {"measurement": "Ex vivo uptake, Parietal bone", "setting": "[2]; saline, after PET scan", "value": "0.61 ± 0.17", "unit": "SUV"},
      {"measurement": "Ex vivo uptake, Pituitary", "setting": "[2]; saline, after PET scan", "value": "3.19 ± 0.29", "unit": "SUV"},
      {"measurement": "Ex vivo uptake, Rest of brain", "setting": "[2]; saline, after PET scan", "value": "1.60 ± 0.25 (4) SUV"},
      {"measurement": "Ex vivo uptake, Thalamus + hypothalamus", "setting": "[2]; saline, after PET scan", "value": "2.07 ± 0.70 (1) SUV"},
      {"measurement": "Ex vivo uptake, Striatum", "setting": "[2]; saline, after PET scan (98 ± 8 min p.i.)", "value": "1.60 ± 0.33 (5) SUV"},
      {"measurement": "metabolism in plasma", "setting": "[3]", "value": "quickly metabolized in the plasma"}
    ]}
  ]
}
